PMC11672299, “Conjugation of Polycationic Peptides Extends the Efficacy Spectrum of β‐Lactam Antibiotics” (Advanced Science, 2024)
Where two headings read alike, the source gives them in different places.

Experiments:
PBP2B = molecular target: T1, PBP2B (Bacillus subtilis, UniProt Q07868); experiment: Gel‐based PBP affinity assay (Bocillin FL competition); format: binding; details: B. subtilis membrane fractions, competition with Bocillin FL penicillin
T1 construct: endogenous in cells; host or cells: B. subtilis DSM 10, extracted membrane protein fraction
Description: (§1) B. subtilis DSM 10 and E. faecalis ATCC 51 299 (equal to DSM 12 956) membrane protein fractions were extracted according to the protocol of Dean et al. with minor modifications.^[ [34] ^] From a growing overnight bacterial culture, 3 L of LB (Luria‐Bertani) medium or TSB (tryptic soy broth) were inoculated with B. subtilis DSM 10 and E. faecalis ATCC 51 299, respectively, to obtain an OD600 = 0.3. The cultures were grown to an OD600 = 0.6–0.8 while shaking at 37 °C and cells were harvested by centrifugation at 4000 g for 30 min at 4 °C. The resulting pellet was washed twice with pre‐cooled PBS and resuspended in 30 mL of ice‐cooled PBS. The suspension was sonicated on ice (10 cycles of 30 s at 50% power for B. subtilis; 12 cycles of 30 s at 80% power for E. faecalis; 2 min intervals between cycles) using an Omni Ruptor 4000 ultrasonic homogenizer (Omni International, Kennesaw, GA, USA). Afterwards, the suspension was centrifuged at 7000 g for 10 min at 4 °C. The clear supernatant was transferred into a 50 mL polypropylene tube and centrifuged in a Beckman Coulter centrifuge equipped with a JA‐20 fixed‐angle rotor (Beckman Coulter, Krefeld, Germany) at 50 000 g for 1 h at 4 °C. The resulting pellet was washed with ice‐cold PBS and centrifuged a second time. The pellet was resuspended in 2 mL PBS and aliquots were stored at −80 °C. The protein content was determined using Bradford reagent (VWR International, Darmstadt, Germany) and Pierce BCA (bicinchoninic acid) protein assay kits (Thermo Fisher Scientific, Waltham, MA, USA) for membrane fractions of B. subtilis and E. faecalis, respectively.
(§2) Each dilution was combined with B. subtilis (30 µg) or E. faecalis (15 µg) extracted membrane fractions. As reference samples, membrane fractions incubated with only PBS were prepared. Reaction mixtures were incubated for 20 min at 37 °C while shaking at 400 rpm. Next, Bocillin FL penicillin (Thermo Fisher Scientific, Waltham, MA, USA) was added to obtain a final concentration of 20 µM in the mixture. Samples were incubated for 30 min at 37 °C while shaking at 400 rpm. To denature the samples, 4× Laemmli sample buffer (Bio‐Rad Laboratories, Feldkirchen, Germany) was added, and the samples incubated for 10 min at 70 °C. Afterwards, the samples were centrifuged for 5 min at 13 000 rpm. Samples were separated by SDS‐PAGE using a 10% Tris‐glycine gel for 100 min at 180 V. The bands were visualized using a Typhoon FLA 9500 imager (GE Healthcare, Chicago, IL, USA) with excitation at 473 nm. The gel images were analyzed using ImageJ software. Brightness and contrast were adjusted to improve the signal‐to‐noise ratio and the background signal was subtracted over the whole image. Next, integrated density values of the gel bands were measured and Bocillin FL penicillin labeling of each PBP in antibiotic‐treated samples were set in proportion to the reference sample. IC50 values were calculated with GraphPad Prism software (version 8.0.1) using inhibitor versus normalized response variable slope and least‐squares fit. […] The mean was calculated using the IC50 values of at least two independent assays for each antibiotic.

PBP1A/B = PBP1A/B (Bacillus subtilis, UniProt P39793); experiment: as above; format: binding; details: B. subtilis membrane fractions, competition with Bocillin FL penicillin
Description: as §1, §2

PBP4 = molecular target: T2, PBP4 (Bacillus subtilis, UniProt P40750); experiment: as above; format: binding; details: B. subtilis membrane fractions, competition with Bocillin FL penicillin
T2 construct: endogenous in cells; host or cells: B. subtilis DSM 10, extracted membrane protein fraction
Description: as §1, §2

[1] = test system: E. coli Tü20‐025 (clinical isolate); experiment: microbe, parasite or virus in culture; format: cell-based
Method in brief: (§3)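 Twofold dilutions in cation-adjusted MHB II, inoculum 5 × 10^5 CFU mL^−1. Combination tests used clavulanic acid at 2 mg L^−1 or avibactam at 4 mg L^−1, fixed per EUCAST.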

B. subtilis DSM 10 = experiment: microbe, parasite or virus in culture; format: cell-based
Method in brief: as §3

[2] = test system: S. aureus ATCC 25923 (MSSA); experiment: microbe, parasite or virus in culture; format: cell-based
Method in brief: as §3

[3] = test system: S. saprophyticus ATCC 15305; experiment: microbe, parasite or virus in culture; format: cell-based
Method in brief: as §3

[4] = test system: K. pneumoniae Tü20‐036 (clinical isolate); experiment: microbe, parasite or virus in culture; format: cell-based
Method in brief: as §3

[5] = test system: E. casseliflavus ATCC 700327; experiment: microbe, parasite or virus in culture; format: cell-based
Method in brief: as §3

[6] = test system: S. aureus NCTC 10442 (MRSA); experiment: microbe, parasite or virus in culture; format: cell-based
Method in brief: as §3

E. faecalis ATCC 29212 = experiment: microbe, parasite or virus in culture; format: cell-based
Method in brief: as §3

T1 sequence (Q07868 whole entry): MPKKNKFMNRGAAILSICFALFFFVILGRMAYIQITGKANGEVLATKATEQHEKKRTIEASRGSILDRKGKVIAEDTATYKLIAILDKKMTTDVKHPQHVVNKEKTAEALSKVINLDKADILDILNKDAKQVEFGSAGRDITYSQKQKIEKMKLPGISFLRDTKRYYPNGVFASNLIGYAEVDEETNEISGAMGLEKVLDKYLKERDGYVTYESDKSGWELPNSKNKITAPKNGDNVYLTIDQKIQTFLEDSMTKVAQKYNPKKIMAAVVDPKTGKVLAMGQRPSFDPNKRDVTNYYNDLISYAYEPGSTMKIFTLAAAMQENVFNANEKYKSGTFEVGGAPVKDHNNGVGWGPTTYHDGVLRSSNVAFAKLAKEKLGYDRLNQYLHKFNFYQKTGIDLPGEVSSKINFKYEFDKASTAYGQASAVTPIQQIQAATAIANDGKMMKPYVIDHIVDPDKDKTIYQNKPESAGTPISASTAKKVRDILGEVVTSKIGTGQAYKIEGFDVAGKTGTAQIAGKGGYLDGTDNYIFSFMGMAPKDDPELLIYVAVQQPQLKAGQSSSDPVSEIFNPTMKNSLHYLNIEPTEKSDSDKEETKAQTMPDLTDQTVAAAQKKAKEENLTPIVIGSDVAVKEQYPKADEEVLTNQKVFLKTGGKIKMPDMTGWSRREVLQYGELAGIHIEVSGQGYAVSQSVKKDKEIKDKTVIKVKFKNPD
Sequence of PBP1A/B (P39793 1-662): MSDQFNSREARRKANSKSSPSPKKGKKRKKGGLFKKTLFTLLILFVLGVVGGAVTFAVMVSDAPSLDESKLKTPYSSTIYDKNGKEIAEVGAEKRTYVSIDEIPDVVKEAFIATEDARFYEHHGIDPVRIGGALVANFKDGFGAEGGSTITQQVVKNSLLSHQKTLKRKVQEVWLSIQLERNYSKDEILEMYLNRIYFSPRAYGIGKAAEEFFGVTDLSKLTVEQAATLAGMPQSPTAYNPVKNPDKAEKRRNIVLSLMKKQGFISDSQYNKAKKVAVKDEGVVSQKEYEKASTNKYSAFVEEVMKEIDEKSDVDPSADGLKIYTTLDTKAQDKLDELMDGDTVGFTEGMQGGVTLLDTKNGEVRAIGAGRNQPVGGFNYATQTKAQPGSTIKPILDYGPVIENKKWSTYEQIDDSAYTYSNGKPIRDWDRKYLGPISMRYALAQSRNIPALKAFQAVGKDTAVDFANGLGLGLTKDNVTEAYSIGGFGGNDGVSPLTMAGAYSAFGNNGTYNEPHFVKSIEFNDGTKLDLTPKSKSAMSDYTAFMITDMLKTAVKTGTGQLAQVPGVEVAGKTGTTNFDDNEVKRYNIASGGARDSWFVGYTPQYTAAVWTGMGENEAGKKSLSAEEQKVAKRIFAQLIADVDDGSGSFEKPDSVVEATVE
T2 sequence (P40750 22-624): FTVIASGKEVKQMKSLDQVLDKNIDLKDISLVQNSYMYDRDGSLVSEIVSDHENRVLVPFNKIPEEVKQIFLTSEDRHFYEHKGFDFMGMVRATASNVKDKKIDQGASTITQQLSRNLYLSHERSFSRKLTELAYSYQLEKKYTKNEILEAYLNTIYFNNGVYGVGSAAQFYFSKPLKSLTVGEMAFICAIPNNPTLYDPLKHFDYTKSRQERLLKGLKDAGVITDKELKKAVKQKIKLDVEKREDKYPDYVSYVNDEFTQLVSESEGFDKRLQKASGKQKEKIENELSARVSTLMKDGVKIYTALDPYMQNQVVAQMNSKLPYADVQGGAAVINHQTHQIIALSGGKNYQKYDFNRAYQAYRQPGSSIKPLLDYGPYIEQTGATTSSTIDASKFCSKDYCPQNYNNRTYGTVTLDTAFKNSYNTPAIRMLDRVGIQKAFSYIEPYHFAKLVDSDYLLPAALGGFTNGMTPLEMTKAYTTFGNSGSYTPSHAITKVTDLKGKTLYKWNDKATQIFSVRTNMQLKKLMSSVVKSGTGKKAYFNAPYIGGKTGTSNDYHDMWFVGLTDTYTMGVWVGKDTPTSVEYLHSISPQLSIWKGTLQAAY

Compound	binding to PBP2B (PBP2B)	binding to PBP1A/B (PBP1A/B)	binding to PBP4 (PBP4)	MIC ([1]; Escherichia coli, E. coli Tü20‐025, median (n = 3), read-out: MIC)	MIC (B. subtilis DSM 10; Bacillus subtilis, DSM10, B. subtilis DSM 10, median (n = 3), read-out: MIC)	MIC ([2]; Staphylococcus aureus, S. aureus ATCC 25923 (MSSA), median (n = 3), read-out: MIC)	MIC ([3]; Staphylococcus saprophyticus, ATCC15305, S. saprophyticus ATCC 15305, median (n = 3), read-out: MIC)	MIC ([4]; Klebsiella pneumoniae)	MIC ([5]; Enterococcus casseliflavus, ATCC700327, E. casseliflavus ATCC 700327, median (n = 3), read-out: MIC)	MIC ([6]; Staphylococcus aureus, S. aureus NCTC 10442 (MRSA), median (n = 3), read-out: MIC)	MIC (E. faecalis ATCC 29212; Enterococcus faecalis, ATCC29212, E. faecalis ATCC 29212, median (n = 3), read-out: MIC)	MIC ([1]; Tü20‐025 (clinical isolate, 20 h))	MIC (B. subtilis DSM 10; DSM 10, 20 h)	MIC ([2]; ATCC 25923, 20 h)	MIC ([3]; ATCC 15305, 20 h)	MIC ([4]; Tü20‐036 (clinical isolate, 20 h))	MIC ([5]; ATCC 700327, 20 h)	MIC ([6]; NCTC 10442, 20 h)	MIC (E. faecalis ATCC 29212; ATCC 29212, 20 h)
CC(C)(O/N=C(\C(=O)N[C@@H]1C(=O)N2C(C(=O)[O-])=C(C[n+]3ccccc3)CS[C@H]12)c1csc(N)n1)C(=O)O [CTZ, ceftazidime, reference compound]	strong binding	strong binding	strong binding	2 µg/mL	8 µg/mL	16 µg/mL	32 µg/mL	0.125 µg/mL	> 2050 µg/mL	16 µg/mL	4 µg/mL	–	–	–	–	–	–	–	–
CC(C)(O/N=C(\C(=O)N[C@@H]1C(=O)N2C(C(=O)[O-])=C(C[n+]3ccccc3)CS[C@H]12)c1csc(N)n1)C(=O)NCCCCCCN1C(=O)CC(SC[C@H](NC(=O)[C@H](CCCNC(=N)N)NC(=O)[C@H](CCCNC(=N)N)NC(=O)[C@H](CCCNC(=N)N)NC(=O)[C@H](CCCNC(=N)N)NC(=O)[C@H](CCCNC(=N)N)NC(=O)[C@@H](N)CCCNC(=N)N)C(N)=O)C1=O (stereo partly shown) [CTZ-R6]	showed affinity	decreased in comparison to CTZ	decreased in comparison to CTZ	–	–	–	–	–	–	–	–	0.5 µg/mL	0.008 µg/mL	4 µg/mL	0.02 µg/mL	0.0625 µg/mL	0.25 µg/mL	2 µg/mL	<0.004 µg/mL
